Literature values, collected in patent US20060019940A1, “Novel benzoxazocines and their therapeutic use” (priority 2002, published 2006).

How the values were obtained:
[1] = tested on: synaptosomal uptake of dopamine, norepinephrine and serotonin; conditions: order of potency (+)-nefopam>(±)-nefopam>(−)-nefopam
[2] = order of potency (+)-nefopam>(±)-nefopam>(−)-nefopam

## CN1CCO[C@@H](c2ccccc2)c2ccccc2C1 [(+)-nefopam]
[1]
  dopamine, norepinephrine and serotonin uptake inhibitory properties compared with (−)-nefopam: more potent
[2]
  analgesic properties compared with (−)-nefopam: more potent
